According to patent US6964759B2, “Formulations containing an anticholinergic drug for the treatment of chronic obstructive pulmonary disease” (Chiesi Farmaceutici S.p.A., priority 2000, dated 2005):

What was measured:
[1] = inhaled single doses of at least 160 μg; cited from earlier work
[2] = Aerodynamic particle size distribution and delivery performance, Andersen Cascade Impactor; type: physicochemical
Protocol: The aerodynamic particle size distribution of each tested formulation was characterized using a Multistage Cascade Impactor according to the procedure described in European Pharmacopoeia 2nd edition, 1995, part V.5.9.1, pages 15-17. In this specific case, an Andersen Cascade Impactor (ACI) was used.
Results were obtained as a mean of 3-4 cans. For each device, 5-25 cumulative actuations were carried out after discarding the first 5.
Deposition of the drug on each ACI plate was determined by high pressure liquid chromatography (HPLC). Mean metered dose was calculated from the cumulative deposition in the actuator and ACI (stages); mean delivered dose was calculated from the cumulative deposition in the ACI. Mean respirable dose (fine particle dose) was obtained from the deposition on Stages 3 to filter corresponding to particles ≦4.71 μm, divided by the number of actuations per experiment.
MAD and associated GSD (standard geometric deviation) values were obtained from probit transformation of cumulative percent undersize—log (ACI effective cut-off particle size diameter) and linear regression analysis of the resultant data, (Ph. Eur. Supp 1999).
The use of a metering chamber volume of 100 μl allows a 320 μg strength variant of the 160 μg formulation.
The delivery characteristics of the formulation in cans equipped with standard Bespack BK 360 actuators with 0.3 mm orifice diameter and a metering chamber volume of 50 μl are reported in Table 2. The use of a metering chamber volume of 100 μl allows a 160 μg strength variant of the 80 μg formulation.
The relevant parameters were determined as described in Example 1.

[3] = nominal dose 20 μg, HFA 134a, 13% ethanol, 1% glycerol
[4] = nominal dose 20 μg, HFA 134a, 13% ethanol, 1% glycerol, 0.3 mm orifice, 50 μl chamber
[5] = nominal dose 40 μg, HFA 134a, 13% ethanol, 1% glycerol
[6] = nominal dose 40 μg, HFA 134a, 13% ethanol, 1% glycerol, 0.3 mm orifice, 50 μl chamber
[7] = nominal dose 80 μg, HFA 134a, 13% ethanol, 1% glycerol
[8] = nominal dose 80 μg, HFA 134a, 13% ethanol, 1% glycerol, 0.3 mm orifice, 50 μl chamber
[9] = nominal dose 80 μg, HFA 134a, 19% ethanol, without the low volatility component
[10] = nominal dose 160 μg, HFA 134a, 13% ethanol, 1% glycerol
[11] = nominal dose 160 μg, HFA 134a, 13% ethanol, 1% glycerol, 0.3 mm orifice, 50 μl chamber
[12] = nominal dose 160 μg, HFA 134a, 19% ethanol, without the low volatility component
[13] = nominal dose 320 μg, HFA 134a, 13% ethanol, 1% glycerol
[14] = nominal dose 320 μg, HFA 134a, 13% ethanol, 1% glycerol, 0.3 mm orifice, 100 μl chamber

CC(C)[N+]1(C)[C@@H]2CC[C@H]1CC(OC(=O)C(CO)c1ccccc1)C2.[Br-] (stereo partly drawn) [ipratropium bromide]
Duration of action [1]: up to 12 hours | MAD ([2]; Example 1 formulations with glycerol, over all nominal doses): 2.2-2.9 μm | MAD ([2]; formulation containing an ethanol level of 19% by weight, nominal doses 80 and 160 μg): 1.2-1.3 μm | GSD [2, 3]: 2.1 ± 0.8 | MAD [2, 3]: 2.4 ± 0.3 μm | Respirable fraction [2, 3]: 33.3 ± 3.8% | Delivered dose [2, 4]: 18.8 ± 1.6 µg | Metered dose [2, 4]: 20.6 ± 1.6 µg | Respirable dose ([2]; nominal dose 20 μg, particles less than 4.7 μm, HFA 134a, 13% ethanol, 1% glycerol): 6.8 ± 1.1 µg | GSD [2, 5]: 2.1 ± 0.1 | MAD [2, 5]: 2.2 ± 0.1 μm | Respirable fraction [2, 5]: 31.5 ± 3.8% | Delivered dose [2, 6]: 38.7 ± 1.9 µg | Metered dose [2, 6]: 42.2 ± 1.8 µg | Respirable dose ([2]; nominal dose 40 μg, particles less than 4.7 μm, HFA 134a, 13% ethanol, 1% glycerol): 11.7 ± 1.2 µg | GSD [2, 7]: 2.2 ± 0.1 | MAD [2, 7]: 2.7 ± 0.3 μm | Respirable fraction [2, 7]: 32.0 ± 6.1% | Delivered dose [2, 8]: 72.7 ± 0.6 µg | Metered dose [2, 8]: 78.5 ± 0.4 µg | Delivered dose [2, 9]: 70.0 ± 1.0 µg | GSD [2, 9]: 4.3 ± 0.4 | MAD [2, 9]: 1.2 ± 0.1 μm | Respirable dose [2, 9]: 20.0 ± 1.3 µg | Respirable fraction [2, 9]: 28.7 ± 1.5% | Metered dose ([2]; nominal dose 80 μg, HFA 134a, 19% ethanol, without the low volatility component, 0.3 mm orifice, 50 μl chamber): 76.6 ± 1.6 µg | Respirable dose ([2]; nominal dose 80 μg, particles less than 4.7 μm, HFA 134a, 13% ethanol, 1% glycerol): 23.3 ± 4.5 µg | GSD [2, 10]: 2.3 ± 0.1 | MAD [2, 10]: 2.5 ± 0.2 μm | Respirable fraction [2, 10]: 30.4 ± 3.5% | Delivered dose [2, 11]: 149.2 ± 10.7 µg | Metered dose [2, 11]: 161.1 ± 12.5 µg | Delivered dose [2, 12]: 144.2 ± 1.7 µg | GSD [2, 12]: 6.2 ± 0.2 | MAD [2, 12]: 1.3 ± 0.2 μm | Respirable dose [2, 12]: 31.4 ± 1.3 µg | Respirable fraction [2, 12]: 21.8 ± 1.1% | Metered dose ([2]; nominal dose 160 μg, HFA 134a, 19% ethanol, without the low volatility component, 0.3 mm orifice, 100 μl chamber): 158.5 ± 2.0 µg | Respirable dose ([2]; nominal dose 160 μg, particles less than 4.7 μm, HFA 134a, 13% ethanol, 1% glycerol): 45.2 ± 2.5 µg | GSD [2, 13]: 2.6 ± 0.1 | MAD [2, 13]: 2.9 ± 0.2 μm | Respirable fraction [2, 13]: 25.2 ± 1.2% | Delivered dose [2, 14]: 290.5 ± 1.9 µg | Metered dose [2, 14]: 321.4 ± 2.0 µg | Respirable dose ([2]; nominal dose 320 μg, particles less than 4.7 μm, HFA 134a, 13% ethanol, 1% glycerol): 73.2 ± 3.0 µg
